Measurements: paper PMC7529893, “Structural basis for substrate recognition and chemical inhibition of oncogenic MAGE ubiquitin ligases” (Nature Communications, 2020)

Target: T1, MAGE-A11:PCF11 interaction (GST-MAGE-A11 and FAM-PCF11_4) (Homo sapiens, UniProt P43364)
T1 construct: GST-MAGE-A11 MHD (human MAGE-A11 MHD amino acid 218-429); made in house; host or cells: E. coli BL21(DE3)
T1 sequence (P43364 218-429): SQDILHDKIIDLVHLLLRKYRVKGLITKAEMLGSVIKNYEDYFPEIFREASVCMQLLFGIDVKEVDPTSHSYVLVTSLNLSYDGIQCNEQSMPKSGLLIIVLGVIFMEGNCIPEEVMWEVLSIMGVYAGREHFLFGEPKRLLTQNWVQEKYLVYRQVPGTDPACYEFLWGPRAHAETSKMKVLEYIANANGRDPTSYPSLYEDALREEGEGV
Assay: TR-FRET primary / single point screen at 15 µM
Type: binding
How it was run: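 Single-point screen at 15 µM final compound in 50 mM Tris pH 7.5, 20 mM MgCl2, 0.1 mg/ml BSA, 1 mM DTT, with 200 nM FAM-PCF11_4, 5 nM Tb-anti-GST and 5 nM GST-MAGE-A11. After 90 min at room temperature, the 520/490 nm TR-FRET ratio (340 nm excitation) gave %Inhibition against no-MAGE-A11 and DMSO controls.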

[1] = single point TR-FRET screening of 797 quinoline compounds against MAGE-A11:PCF11
[2] = single point TR-FRET screening of quinoline compounds against MAGE-A11:PCF11, 15 µM

SMILES	percent inhibition (TR-FRET) [1]	percent inhibition (TR-FRET) [2]
CCCN(CCCNc1c2ccc(Cl)cc2nc2ccc(OC)cc12)Cc1ccc(OC)c(F)c1 [SJ000522963]	-177.507	–
CCCN(CCCNc1c2ccc(Cl)cc2nc2ccc(OC)cc12)Cc1cn(C)c2ccccc12 [SJ000522964]	-162.244	–
CCCN(CCCNc1c2ccc(Cl)cc2nc2ccc(OC)cc12)Cc1cc(OC)ccc1F [SJ000522965]	–	-81.2358
CCCN(CCCNc1c2ccc(Cl)cc2nc2ccc(OC)cc12)Cc1nc(C)cs1 [SJ000522966]	–	-82.146
CCCN(CCCNc1c2ccc(Cl)cc2nc2ccc(OC)cc12)Cc1cccc(OC(F)(F)F)c1 [SJ000522967]	–	14.4758
CCCN(CCCNc1c2ccc(Cl)cc2nc2ccc(OC)cc12)Cc1c(F)cccc1C(F)(F)F [SJ000522968]	–	23.0877
CCCN(CCCNc1c2ccc(Cl)cc2nc2ccc(OC)cc12)Cc1nc2ccccc2s1 [SJ000522969]	–	-68.773
CCCN(CCCNc1c2ccc(Cl)cc2nc2ccc(OC)cc12)Cc1csc2ccccc12 [SJ000522970]	–	-51.6891
CCCCN(CCC)CCCNc1c2ccc(Cl)cc2nc2ccc(OC)cc12 [SJ000522971]	-286.942	–
CCCN(CCCNc1c2ccc(Cl)cc2nc2ccc(OC)cc12)Cc1ccc(CC)cc1 [SJ000522972]	-105.076	–
CCCN(CCCNc1c2ccc(Cl)cc2nc2ccc(OC)cc12)Cc1nccn1C [SJ000522973]	-159.863	–
CCCN(CCCNc1c2ccc(Cl)cc2nc2ccc(OC)cc12)Cc1ccc(Cl)c(C(F)(F)F)c1 [SJ000522974]	–	16.3588
CCCN(CCCNc1c2ccc(Cl)cc2nc2ccc(OC)cc12)Cc1cncc(Br)c1 [SJ000522975]	–	-89.0775
CCCN(CCCNc1c2ccc(Cl)cc2nc2ccc(OC)cc12)Cc1scnc1C [SJ000522976]	-127.026	–
CCCN(CCCNc1c2ccc(Cl)cc2nc2ccc(OC)cc12)Cc1cccnc1Br [SJ000522977]	–	0.2567
CCCN(CCCNc1c2ccc(Cl)cc2nc2ccc(OC)cc12)Cc1c[nH]c2ccccc12 [SJ000522978]	-166.235	–
CCCN(CCCNc1c2ccc(Cl)cc2nc2ccc(OC)cc12)Cc1cccc2c1OCO2 [SJ000522979]	-107.991	–
CCCN(CCCNc1c2ccc(Cl)cc2nc2ccc(OC)cc12)Cc1cnn(C)c1 [SJ000522980]	-276.65	–
CCCN(CCCNc1c2ccc(Cl)cc2nc2ccc(OC)cc12)CCOCc1ccccc1 [SJ000522981]	-212.396	–
CCCN(CCCNc1c2ccc(Cl)cc2nc2ccc(OC)cc12)Cc1cc(F)cc(F)c1O [SJ000522982]	–	2.045
CCCN(CCCNc1c2ccc(Cl)cc2nc2ccc(OC)cc12)CCC(C)(C)C [SJ000522983]	-233.73	–
CCCN(CCCNc1c2ccc(Cl)cc2nc2ccc(OC)cc12)Cc1cc(OC(F)(F)F)ccc1OC [SJ000522984]	–	-36.7058
CCCN(CCCNc1c2ccc(Cl)cc2nc2ccc(OC)cc12)Cc1cc(C(F)(F)F)ccc1OC [SJ000522985]	–	-46.0179
CCCN(CCCNc1c2ccc(Cl)cc2nc2ccc(OC)cc12)Cc1cccc(C(F)(F)F)c1 [SJ000522986]	–	16.1546

SMILES	percent inhibition (TR-FRET) [1]	percent inhibition (TR-FRET) [2]
CCCN(CCCNc1c2ccc(Cl)cc2nc2ccc(OC)cc12)Cc1cccn1C [SJ000522987]	-302.626	–
CCCN(CCCNc1c2ccc(Cl)cc2nc2ccc(OC)cc12)Cc1nccs1 [SJ000522988]	-117.531	–
CCCN(CCCNc1c2ccc(Cl)cc2nc2ccc(OC)cc12)Cc1cc(Br)cs1 [SJ000522989]	–	-56.7027
CCCN(CCCNc1ccnc2cc(Cl)ccc12)Cc1c[nH]c(C)n1 [SJ000522990]	–	4.828
CCCN(CCCNc1ccnc2cc(Cl)ccc12)Cc1cc2ccccc2o1 [SJ000522991]	–	9.295
CCCN(CCCNc1ccnc2cc(Cl)ccc12)Cc1c[nH]c2ccc(F)cc12 [SJ000522992]	–	29.3392
CCCN(CCCNc1ccnc2cc(Cl)ccc12)Cc1cc2ccccc2s1 [SJ000522993]	–	5.864
CCCN(CCCNc1ccnc2cc(Cl)ccc12)Cc1ccc(OC)c(F)c1 [SJ000522994]	–	15.1623
CCCN(CCCNc1ccnc2cc(Cl)ccc12)Cc1cn(C)c2ccccc12 [SJ000522995]	–	-1.532
CCCN(CCCNc1ccnc2cc(Cl)ccc12)Cc1cc(OC)ccc1F [SJ000522996]	–	26.6585
CCCN(CCCNc1ccnc2cc(Cl)ccc12)Cc1nc(C)cs1 [SJ000522997]	–	3.413
CCCN(CCCNc1ccnc2cc(Cl)ccc12)Cc1ccc(OC(F)(F)F)cc1 [SJ000522999]	–	22.7376
C#Cc1ccccc1CN(CCC)CCCNc1ccnc2cc(Cl)ccc12 [SJ000523000]	–	12.4462
CCCN(CCCNc1ccnc2cc(Cl)ccc12)Cc1ccc(CC)cc1 [SJ000523001]	–	30.1342
CCCN(CCCNc1ccnc2cc(Cl)ccc12)Cc1nccn1C [SJ000523002]	–	6.351
CCCN(CCCNc1ccnc2cc(Cl)ccc12)Cc1cncc(Br)c1 [SJ000523004]	–	4.828
CCCN(CCCNc1ccnc2cc(Cl)ccc12)Cc1scnc1C [SJ000523005]	–	11.85
CCCN(CCCNc1ccnc2cc(Cl)ccc12)Cc1cccnc1Br [SJ000523006]	–	13.3074
CCCN(CCCNc1ccnc2cc(Cl)ccc12)Cc1c[nH]c2ccccc12 [SJ000523007]	–	26.2256
CCCN(CCCNc1ccnc2cc(Cl)ccc12)Cc1ncc[nH]1 [SJ000523008]	–	4.165
CCCN(CCCNc1ccnc2cc(Cl)ccc12)Cc1cnn(C)c1 [SJ000523009]	–	10.0613
CCCN(CCCNc1ccnc2cc(Cl)ccc12)Cc1[nH]cnc1C [SJ000523010]	–	12.0487
CCCN(CCCNc1ccnc2cc(Cl)ccc12)Cc1cc(OC(F)(F)F)ccc1OC [SJ000523011]	–	15.666
CCCN(CCCNc1ccnc2cc(Cl)ccc12)Cc1cc(C(F)(F)F)ccc1OC [SJ000523012]	–	30.3991

SMILES	percent inhibition (TR-FRET) [1]	percent inhibition (TR-FRET) [2]
CCCN(CCCNc1ccnc2cc(Cl)ccc12)Cc1cccc(C(F)(F)F)c1 [SJ000523013]	–	17.481
CCCN(CCCNc1ccnc2cc(Cl)ccc12)Cc1cccn1C [SJ000523014]	–	22.7145
CCCN(CCCNc1ccnc2cc(Cl)ccc12)CC1CCOC1 (stereo not shown) [SJ000523016]	–	9.6638
CCCN(CCCCCC(=O)OC)CCCNc1ccnc2cc(Cl)ccc12 [SJ000523017]	–	14.3011
CCCN(CCCNc1c2ccc(Cl)cc2nc2ccc(OC)cc12)Cc1ccc(C(=O)OC)cc1 [SJ000523018]	-118.624	–
CCCN(CCCNc1c2ccc(Cl)cc2nc2ccc(OC)cc12)Cc1ccc(-c2ccccc2[N+](=O)[O-])o1 [SJ000523019]	-102.758	–
CCCN(CCCNc1c2ccc(Cl)cc2nc2ccc(OC)cc12)Cc1ccc(-c2cccc(Cl)c2)o1 [SJ000523020]	-169.736	–
CCCN(CCCNc1c2ccc(Cl)cc2nc2ccc(OC)cc12)Cc1c(Cl)ccc(Cl)c1Cl [SJ000523021]	–	40.005
CCCN(CCCNc1c2ccc(Cl)cc2nc2ccc(OC)cc12)Cc1ccc([N+](=O)[O-])o1 [SJ000523022]	-329.654	–
COc1ccc2nc3cc(Cl)ccc3c(NCCCNCc3ccncc3)c2c1 [SJ000523023]	-127.586	–
COc1ccc2nc3cc(Cl)ccc3c(NCCCNCc3ccccn3)c2c1 [SJ000523024]	-255.258	–
COc1ccc2nc3cc(Cl)ccc3c(NCCCNCCCSC)c2c1 [SJ000523025]	-336.863	–
COc1ccc2nc3cc(Cl)ccc3c(NCCCNCc3ccsc3)c2c1 [SJ000523026]	-353.834	–
COc1ccc2nc3cc(Cl)ccc3c(NCCCNCCC(C)c3ccccc3)c2c1 (stereo not shown) [SJ000523027]	-340.253	–
COc1ccc2nc3cc(Cl)ccc3c(NCCCNCc3ccc(N(C)C)c4ccccc34)c2c1 [SJ000523028]	–	-1.532
COc1ccc2nc3cc(Cl)ccc3c(NCCCNCc3ccc(C)s3)c2c1 [SJ000523029]	-304.796	–
COc1ccc2nc3cc(Cl)ccc3c(NCCCNCc3ccc(Br)o3)c2c1 [SJ000523030]	-219.419	–
COc1ccc2nc3cc(Cl)ccc3c(NCCCNCc3ccccc3N)c2c1 [SJ000523031]	–	-57.1504
COc1ccc2nc3cc(Cl)ccc3c(NCCCNCc3ccco3)c2c1 [SJ000523032]	-165.325	–
COc1ccc(CNCCCNc2c3ccc(Cl)cc3nc3ccc(OC)cc23)cc1 [SJ000523033]	-338.862	–
COc1ccc2nc3cc(Cl)ccc3c(NCCCNCc3ccccc3F)c2c1 [SJ000523034]	-353.834	–
COc1ccc2nc3cc(Cl)ccc3c(NCCCNCc3ccc(F)cc3)c2c1 [SJ000523035]	-398.22	–
